From patent US20240269139A1, “COMPOUNDS FOR TARGETED PROTEIN DEGRADATION OF KINASES” (DANA-FARBER CANCER INSTITUTE, INC., priority 2020, published 2024)
Read-outs that look alike come from different tables or passages of the source.

Assays:
Format in all cases: cell-based
[1] = molecular target: protein kinases (human kinome) (Homo sapiens, UniProt P54819); conditions: AK2 (P54819)
[2] = molecular target: T1, protein kinases (human kinome) (Homo sapiens, UniProt O95835); conditions: LATS1 O95835; experiment wp160, 8 hr
T1 sequence (O95835 1-1130): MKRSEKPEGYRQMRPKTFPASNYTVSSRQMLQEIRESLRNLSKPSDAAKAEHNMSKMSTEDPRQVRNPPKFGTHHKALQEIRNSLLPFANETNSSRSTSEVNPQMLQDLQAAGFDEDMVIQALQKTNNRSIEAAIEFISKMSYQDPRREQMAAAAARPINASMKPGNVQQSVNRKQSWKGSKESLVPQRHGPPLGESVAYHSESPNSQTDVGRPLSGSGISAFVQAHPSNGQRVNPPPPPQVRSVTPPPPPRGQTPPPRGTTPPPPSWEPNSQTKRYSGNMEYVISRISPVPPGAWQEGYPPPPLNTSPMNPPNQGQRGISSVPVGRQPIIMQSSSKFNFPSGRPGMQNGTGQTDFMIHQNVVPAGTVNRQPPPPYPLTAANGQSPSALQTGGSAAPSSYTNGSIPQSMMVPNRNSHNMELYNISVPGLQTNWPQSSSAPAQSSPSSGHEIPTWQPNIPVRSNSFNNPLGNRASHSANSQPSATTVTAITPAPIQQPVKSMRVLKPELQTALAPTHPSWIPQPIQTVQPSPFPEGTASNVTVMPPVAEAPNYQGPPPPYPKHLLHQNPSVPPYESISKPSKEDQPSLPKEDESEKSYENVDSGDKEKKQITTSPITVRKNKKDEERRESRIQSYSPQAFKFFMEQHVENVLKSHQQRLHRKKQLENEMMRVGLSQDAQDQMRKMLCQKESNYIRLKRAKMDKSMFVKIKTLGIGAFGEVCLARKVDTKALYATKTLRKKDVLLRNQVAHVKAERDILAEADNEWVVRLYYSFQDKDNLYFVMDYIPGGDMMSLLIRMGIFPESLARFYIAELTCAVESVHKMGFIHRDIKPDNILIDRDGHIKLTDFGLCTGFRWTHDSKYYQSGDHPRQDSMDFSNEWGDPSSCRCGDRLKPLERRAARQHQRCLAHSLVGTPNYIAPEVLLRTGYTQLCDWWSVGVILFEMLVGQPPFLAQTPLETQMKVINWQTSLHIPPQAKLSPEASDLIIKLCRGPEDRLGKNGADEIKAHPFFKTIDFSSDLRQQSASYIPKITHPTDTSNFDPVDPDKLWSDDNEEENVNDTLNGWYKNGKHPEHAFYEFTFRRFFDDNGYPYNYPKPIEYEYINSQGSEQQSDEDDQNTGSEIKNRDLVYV

[3] = molecular target: protein kinases (human kinome) (Homo sapiens, UniProt P35790); conditions: CHKA P35790
[4] = molecular target: protein kinases (human kinome) (Homo sapiens, UniProt P53350); conditions: PLK1 P53350
[5] = molecular target: protein kinases (human kinome) (Homo sapiens, UniProt Q9BVS4); conditions: RIOK2 Q9BVS4
[6] = molecular target: T2, protein kinases (human kinome) (Homo sapiens, UniProt Q08881)
T2 sequence (Q08881 1-620): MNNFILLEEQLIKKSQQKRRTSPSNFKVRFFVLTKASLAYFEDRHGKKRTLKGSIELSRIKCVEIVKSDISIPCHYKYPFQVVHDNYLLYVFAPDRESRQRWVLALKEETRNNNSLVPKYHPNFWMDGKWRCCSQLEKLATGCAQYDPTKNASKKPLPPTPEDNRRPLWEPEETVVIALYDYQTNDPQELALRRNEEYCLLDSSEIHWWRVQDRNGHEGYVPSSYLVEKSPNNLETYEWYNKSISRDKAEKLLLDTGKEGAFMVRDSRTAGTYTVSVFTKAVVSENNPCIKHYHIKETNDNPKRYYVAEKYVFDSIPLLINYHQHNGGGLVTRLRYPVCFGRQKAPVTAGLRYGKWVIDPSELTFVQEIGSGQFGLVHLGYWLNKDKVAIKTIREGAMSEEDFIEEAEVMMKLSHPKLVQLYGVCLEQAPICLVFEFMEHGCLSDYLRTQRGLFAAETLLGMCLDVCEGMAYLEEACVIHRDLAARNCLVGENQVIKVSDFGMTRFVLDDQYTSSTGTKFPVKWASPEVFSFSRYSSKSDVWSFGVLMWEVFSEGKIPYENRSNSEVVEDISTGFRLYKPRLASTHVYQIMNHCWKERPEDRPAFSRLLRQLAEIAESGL

protein kinases (human kinome) (Homo sapiens, UniProt P53350), sequence (P53350 whole entry): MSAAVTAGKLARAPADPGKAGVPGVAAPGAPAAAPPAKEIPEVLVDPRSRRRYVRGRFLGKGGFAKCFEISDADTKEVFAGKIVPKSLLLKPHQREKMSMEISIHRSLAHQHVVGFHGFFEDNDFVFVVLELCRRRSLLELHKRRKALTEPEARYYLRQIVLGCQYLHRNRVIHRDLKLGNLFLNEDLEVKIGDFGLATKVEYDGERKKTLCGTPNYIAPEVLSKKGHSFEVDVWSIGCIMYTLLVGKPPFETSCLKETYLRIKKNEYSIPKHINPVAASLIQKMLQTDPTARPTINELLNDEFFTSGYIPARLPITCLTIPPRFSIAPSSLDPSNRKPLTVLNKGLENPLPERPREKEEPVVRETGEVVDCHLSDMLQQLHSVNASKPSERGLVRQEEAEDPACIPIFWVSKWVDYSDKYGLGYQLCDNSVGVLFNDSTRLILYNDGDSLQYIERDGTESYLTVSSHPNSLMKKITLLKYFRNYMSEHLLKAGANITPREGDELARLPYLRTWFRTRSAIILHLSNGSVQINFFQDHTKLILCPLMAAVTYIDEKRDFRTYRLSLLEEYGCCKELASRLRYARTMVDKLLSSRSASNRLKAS
protein kinases (human kinome) (Homo sapiens, UniProt P35790), sequence (P35790 whole entry): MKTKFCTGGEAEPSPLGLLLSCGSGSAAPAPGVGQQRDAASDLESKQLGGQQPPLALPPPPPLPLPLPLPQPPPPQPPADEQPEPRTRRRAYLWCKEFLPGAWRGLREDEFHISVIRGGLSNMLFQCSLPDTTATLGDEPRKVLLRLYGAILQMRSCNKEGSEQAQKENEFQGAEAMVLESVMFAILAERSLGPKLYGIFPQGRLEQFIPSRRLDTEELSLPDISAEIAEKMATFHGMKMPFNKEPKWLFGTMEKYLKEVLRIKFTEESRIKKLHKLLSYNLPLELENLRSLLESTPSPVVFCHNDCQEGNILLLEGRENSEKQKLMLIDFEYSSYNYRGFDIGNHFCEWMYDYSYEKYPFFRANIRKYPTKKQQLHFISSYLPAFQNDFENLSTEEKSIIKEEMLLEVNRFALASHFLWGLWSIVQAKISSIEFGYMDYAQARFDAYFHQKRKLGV
protein kinases (human kinome) (Homo sapiens, UniProt Q9BVS4), sequence (Q9BVS4 whole entry): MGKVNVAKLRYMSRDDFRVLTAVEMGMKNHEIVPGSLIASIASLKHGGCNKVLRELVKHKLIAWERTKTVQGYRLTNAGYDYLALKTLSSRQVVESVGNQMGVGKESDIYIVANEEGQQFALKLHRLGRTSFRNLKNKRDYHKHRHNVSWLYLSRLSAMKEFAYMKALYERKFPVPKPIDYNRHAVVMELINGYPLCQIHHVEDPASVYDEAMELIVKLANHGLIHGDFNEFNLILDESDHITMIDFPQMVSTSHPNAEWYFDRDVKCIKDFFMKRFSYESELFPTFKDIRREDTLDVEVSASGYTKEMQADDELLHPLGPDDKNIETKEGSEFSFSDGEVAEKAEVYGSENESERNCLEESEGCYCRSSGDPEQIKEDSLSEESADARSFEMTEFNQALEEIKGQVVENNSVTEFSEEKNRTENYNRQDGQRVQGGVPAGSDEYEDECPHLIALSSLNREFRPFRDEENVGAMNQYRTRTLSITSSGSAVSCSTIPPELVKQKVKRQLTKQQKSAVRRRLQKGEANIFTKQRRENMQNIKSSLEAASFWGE

With `CC(=O)c1c(C)c2cnc(Nc3ccc(N4CCN(CCOCCOCCOCCNC(=O)COc5cccc6c5C(=O)N(C5CCC(=O)NC5=O)C6=O)CC4)cn3)nc2n(C2CCCC2)c1=O` (stereo not shown) [BSJ.03.123] the logFC ([1]; experiment wp084) was −0.395.
`CN(C)C(=O)c1cc2cnc(Nc3ccc(N4CCN(CCCCNC(=O)COc5cccc6c5C(=O)N(C5CCC(=O)NC5=O)C6=O)CC4)cn3)nc2n1C1CCCC1` (stereo not shown) [BSJ.04.132] showed a logFC ([1]; experiment wp084) of −0.3323.
With `Cc1ccc(NC(=O)c2cccc(C(F)(F)F)c2)cc1N1Cc2cnc(Nc3ccc(N4CCN(Cc5cn(CCCCCOc6cccc7c6C(=O)N(C6CCC(=O)NC6=O)C7=O)nn5)CC4)nc3)nc2N(C)C1=O` (stereo not shown) [DB0646, N-(3-(7-((6-(4-((1-(5-((2-(2,6-Dioxopiperidin-3-yl)-1,3-dioxoisoindolin-4-yl)oxy)pentyl)-1H-1,2,3-triazol-4-yl)methyl)piperazin-1-v)pyridin-3-yl)amino)-1-methyl-2-oxo-1,4-dihydropyrimido[4,5-d]pyrimidin-3(2H)-yl)-4-methylphenyl)-3-(trifluoromethyl)benzamide] the logFC [2] was −0.3382, the “logFC LATS1” value [2] was −0.3382 and the logFC ([3]; experiment wp152) was −0.3979. The logFC ([3]; experiment wp160, 8 hr) was −0.4303, the logFC ([4]; experiment wp152) was −0.331 and the “logFC PLK1” value ([4]; experiment wp152) was −0.331.
`O=C1CCC(N2C(=O)c3cccc(NCCCCCCCCN4CCC(NC(=O)c5[nH]ncc5NC(=O)c5c(Cl)cccc5Cl)CC4)c3C2=O)C(=O)N1` (stereo not shown) [MFH.5.126.1] was tested, and the logFC ([3]; experiment wp076) was −0.4653, the logFC ([4]; experiment wp076) was −1.071 and the “logFC PLK1” value ([4]; experiment wp076) was −1.071. The logFC ([5]; experiment wp076) was −0.7874 and the “logFC RIOK2” value ([5]; experiment wp076) was −0.7874.
Work on `Cc1ccc(C(=O)Nc2ccc(CN3CCN(CCCOCCOCCOCCNC(=O)COc4cccc5c4C(=O)N(C4CCC(=O)NC4=O)C5=O)CC3)c(C(F)(F)F)c2)cc1C#Cc1cnc2cccnn12` (stereo not shown) [SB1.G.187] yielded a logFC ([1]; experiment wp056) of −0.3691.
In the case of `CC(C)S(=O)(=O)c1ccccc1Nc1nc(Nc2ccc(N3CCN(CCOCCOCCNC(=O)CNc4cccc5c4C(=O)N(C4CCC(=O)NC4=O)C5=O)CC3)cc2)ncc1Cl` (stereo not shown) [TL12.186], the logFC ([3]; experiment wp131) is reported as −0.3954, the “logFC ITK (Q08881)” value ([6]; experiment wp016) is reported as −2.342 and the “logFC ITK (Q08881)” value ([6]; experiment wp016, direction of change down) is reported as −2.342. The “logFC ITK (Q08881)” value ([6]; experiment wp131) was −2.292, the “logFC ITK (Q08881)” value ([6]; experiment wp131, direction of change down) was −2.292 and the “logFC ITK (Q08881)” value ([6]; experiment wp137) was −1.973. The “logFC ITK (Q08881)” value ([6]; experiment wp137, direction of change down) was −1.973, the logFC ([5]; experiment wp131) was −0.9134 and the “logFC RIOK2” value ([5]; experiment wp131) was −0.9134. For the same compound, the logFC ([5]; experiment wp137) was −0.7728 and the “logFC RIOK2” value ([5]; experiment wp137) was −0.7728.
